Laboratory results from US6872729B2, “Pyrimidinylbenzimidazole and triazinylbenzimidazole derivatives and agricultural/horticultural fungicides” (Kumiai Chemical Industry Co., Ltd., priority 1998, dated 2005).

Test system: Erysiphe graminis
Assay: Test for preventive effect on wheat powdery mildew
Format: in vivo
Conditions: wheat (Norin-61-go) seedlings, 500 ppm active ingredient, preventive treatment; diseased area of first leaves 10 days after inoculation with Erysiphe graminis
Protocol: Test for Preventive Effect on Wheat Powdery Mildew 9 Wheat seeds (variety: Norin-61-go) were sown in each 9 cm×9 cm polyvinyl chloride pot, grown in a greenhouse for 8 days, then treated with 10 ml per pot of aqueous solutions of wettable powders prepared in accordance with Formulation Example 2, at a concentration of 500 ppm in terms of the active ingredients and dried in the air. Then, the seedlings were inoculated with Erysiphe graminis spores by sprinkle over the plant and placed in a greenhouse of from 20 to 25° C. 10 days after the inoculation, the total diseases area of the first leaves in each pot was observed and evaluated on the basis of the standards shown in Table 67. [table]

| Structure (SMILES) | Biological effectiveness |
| --- | --- |
| CCOc1ccc2c(c1)nc(C(F)(F)F)n2-c1nc(OC)cc(OC)n1 [Compound I-301] | A (No diseased area) |
| COc1cc(OC)nc(-n2cnc3ccc(F)cc32)n1 [Compound I-112] | B (Diseased area of less than 25%) |
| COc1cc(OC)nc(-n2cnc3cc(C)ccc32)n1 [Compound I-85] | A (No diseased area) |
| COc1nc(OC)nc(-n2c(-c3ccccc3)nc3cc(Cl)ccc32)n1 [Compound I-378] | A (No diseased area) |
| COc1nc(OC)nc(-n2cnc3cc(C)ccc32)n1 [Compound I-133] | A (No diseased area) |
| C#CCOc1cc(C)nc(-n2cnc3ccccc32)n1 [Compound I-894] | B (Diseased area of less than 25%) |
| COc1ccc2ncn(-c3nc(OC)cc(OC)n3)c2c1 [Compound I-116] | B (Diseased area of less than 25%) |
| CCOc1cc(OCC)nc(-n2cnc3ccccc32)n1 [Compound I-457] | B (Diseased area of less than 25%) |
| COc1nc(OC)nc(-n2c(C(C)C)nc3cc(Cl)ccc32)n1 [Compound I-359] | A (No diseased area) |
| COc1nc(OC)nc(-n2c(C)nc3cc(C(C)=O)ccc32)n1 [Compound I-234] | A (No diseased area) |
| COc1nc(C2CC2)nc(-n2c(C)nc3cc(C)ccc32)n1 [Compound I-1019] | A (No diseased area) |
| CCOc1cc(OCC)nc(-n2c(C)nc3cc(Cl)ccc32)n1 [Compound I-499] | A (No diseased area) |
| COc1ccc2c(c1)nc(C(F)(F)F)n2-c1nc(OC)cc(OC)n1 [Compound I-300] | A (No diseased area) |
| COc1cc(OC)nc(-n2c(C(F)(F)F)nc3cc(F)ccc32)n1 [Compound I-295] | A (No diseased area) |
| COc1cc(OC)nc(-n2c(SC)nc3cc(Cl)ccc32)n1 [Compound I-388] | A (No diseased area) |
| Cc1cc(OC(C)C)nc(-n2c(C)nc3ccccc32)n1 [Compound I-840] | B (Diseased area of less than 25%) |
| CCOc1nc(OCC)nc(-n2c(C)nc3cc(Cl)ccc32)n1 [Compound I-514] | A (No diseased area) |
| Cc1cc(C(F)(F)F)nc(-n2cnc3ccccc32)n1 [Compound I-1082] | B (Diseased area of less than 25%) |
| CCCOc1cc(C)nc(-n2c(C)nc3ccccc32)n1 [Compound I-806] | B (Diseased area of less than 25%) |
| COc1cc(OC)nc(-n2c(C(F)(F)F)nc3cc(C(F)(F)F)ccc32)n1 [Compound I-299] | A (No diseased area) |
| COc1nc(OC)nc(-n2c(C)nc3cc(C(F)(F)F)ccc32)n1 [Compound I-225] | A (No diseased area) |
| COc1cc(OC)nc(-n2c(C)nc3ccc(C(=O)c4ccccc4)cc32)n1 [Compound I-208] | B (Diseased area of less than 25%) |
| COc1nc(C)nc(-n2c(Cl)nc3cc(C)ccc32)n1 [Compound I-758] | A (No diseased area) |
| COc1ccc2nc(C)n(-c3nc(OC)cc(OC)n3)c2c1 [Compound I-204] | A (No diseased area) |

| Structure (SMILES) | Biological effectiveness |
| --- | --- |
| COc1nc(OC)nc(-n2c(C)nc3cc(C#N)ccc32)n1 [Compound I-239] | A (No diseased area) |
| CCc1nc2cc(C(F)(F)F)ccc2n1-c1nc(OC)cc(OC)n1 [Compound I-335] | A (No diseased area) |
| CCOc1cc(OCC)nc(-n2c(C)nc3ccccc32)n1 [Compound I-461] | A (No diseased area) |
| COc1nc(-c2ccccc2)nc(-n2c(C(F)(F)F)nc3ccc(C)cc32)n1 [Compound I-1059] | A (No diseased area) |
| COc1cc(OC)nc(-n2c(N)nc3ccc(C)cc32)n1 [Compound I-366] | A (No diseased area) |
| CCOc1cc(OCC)nc(-n2c(C)nc3ccc(OC)cc32)n1 [Compound I-511] | A (No diseased area) |
| COc1nc(OC)nc(-n2c(C)nc3cc(I)ccc32)n1 [Compound I-217] | A (No diseased area) |
| CCOc1cc(C)nc(-n2c(C)nc3ccccc32)n1 [Compound I-769] | A (No diseased area) |
| COc1cc(OC)nc(-n2cnc3ccccc32)n1 [Compound I-1] | A (No diseased area) |
| COc1cc(OC)nc(-n2c(C)nc3cc(F)ccc32)n1 [Compound I-183] | B (Diseased area of less than 25%) |
| COc1nc(OC)nc(-n2c(C)nc3cc(C(C)(C)C)ccc32)n1 [Compound I-222] | B (Diseased area of less than 25%) |
| COc1cc(OC)nc(-n2cnc3cc(C(F)(F)F)ccc32)n1 [Compound I-87] | A (No diseased area) |
| CCOc1cc(OCC)nc(-n2c(Cl)nc3ccccc32)n1 [Compound I-458] | A (No diseased area) |
| CSc1nc(C)nc(-n2c(C)nc3cc(C)ccc32)n1 [Compound I-915] | A (No diseased area) |
| COc1ccnc(-n2c(C(F)(F)F)nc3cc(Cl)ccc32)n1 [Compound I-682] | A (No diseased area) |
| CNc1nc2ccccc2n1-c1nc(OC)cc(OC)n1 [Compound I-29] | B (Diseased area of less than 25%) |
| COc1nc(OC)nc(-n2c(C)nc3cc(Br)ccc32)n1 [Compound I-216] | A (No diseased area) |
| COc1cc(OC)nc(-n2c(C)nc3ccc(F)cc32)n1 [Compound I-200] | A (No diseased area) |
| CCCc1nc2cc(Cl)ccc2n1-c1nc(OC)nc(OC)n1 [Compound I-358] | A (No diseased area) |
| COc1ccc2c(c1)nc(C(F)(F)F)n2-c1nc(OC)nc(OC)n1 [Compound I-318] | A (No diseased area) |
| COc1nc(OC)nc(-n2c(C)nc3c(C)cc(C)cc32)n1 [Compound I-250] | B (Diseased area of less than 25%) |
| COc1cc(OC)nc(-n2c(C(F)(F)F)nc3ccccc32)n1 [Compound I-26] | A (No diseased area) |
| Cc1nc2cc(Cl)ccc2n1-c1nc(OC(C)C)nc(OC(C)C)n1 [Compound I-592] | A (No diseased area) |
| COc1nc(OC)nc(-n2cnc3ccccc32)n1 [Compound I-40] | B (Diseased area of less than 25%) |

| Structure (SMILES) | Biological effectiveness |
| --- | --- |
| CCOCc1nc2ccccc2n1-c1nc(OC)cc(OC)n1 [Compound I-22] | A (No diseased area) |
| COc1cc(OC)nc(-n2c(C)nc3ccc(C(F)(F)F)cc32)n1 [Compound I-203] | B (Diseased area of less than 25%) |
| C=CCOc1nc(OCC=C)nc(-n2c(C)nc3cc(Cl)ccc32)n1 [Compound I-601] | A (No diseased area) |
| CCc1cc(CC)nc(-n2c(C)nc3cc(C)ccc32)n1 [Compound I-1095] | A (No diseased area) |
| CCOc1ccc2c(c1)nc(Cl)n2-c1nc(OC)cc(OC)n1 [Compound I-261] | B (Diseased area of less than 25%) |
| COc1cc(OC)nc(-n2c(Cl)nc3cc(OC(F)(F)F)ccc32)n1 [Compound I-263] | A (No diseased area) |
| COc1cc(OC)nc(-n2cnc3cc(C)c(C)cc32)n1 [Compound I-122] | B (Diseased area of less than 25%) |
| CCOc1ccnc(-n2c(C(F)(F)F)nc3cc(C)ccc32)n1 [Compound I-705] | A (No diseased area) |
| CCOc1cc(OCC)nc(-n2c(C)nc3cc(F)ccc32)n1 [Compound I-498] | A (No diseased area) |
| CCc1nc2ccccc2n1-c1nc(OC)cc(OC)n1 [Compound I-7] | A (No diseased area) |
| COc1ccc2c(c1)ncn2-c1nc(OC)cc(OC)n1 [Compound I-88] | B (Diseased area of less than 25%) |
| CCc1cc(CC)nc(-n2cnc3ccccc32)n1 [Compound I-1093] | A (No diseased area) |
| COc1ccnc(-n2c(C)nc3cc(Cl)ccc32)n1 [Compound I-671] | B (Diseased area of less than 25%) |
| COc1cc(OC)nc(-n2c(C(F)(F)F)nc3ccc(C)cc32)n1 [Compound I-307] | A (No diseased area) |
| CCOc1nc(OC)nc(-n2c(C)nc3cc(Cl)ccc32)n1 [Compound I-438] | A (No diseased area) |
| COc1nc(OC)nc(-n2cnc3cc(I)ccc32)n1 [Compound I-132] | A (No diseased area) |
| CCOc1ccnc(-n2c(C)nc3cc(Cl)ccc32)n1 [Compound I-694] | B (Diseased area of less than 25%) |
| COc1ccc2c(c1)nc(C)n2-c1nc(OC)cc(OC)n1 [Compound I-189] | A (No diseased area) |
| C#CCOc1cc(C)nc(-n2c(C(F)(F)F)nc3cc(C)ccc32)n1 [Compound I-903] | B (Diseased area of less than 25%) |
| CSc1nc(SC)nc(-n2c(C(F)(F)F)nc3cc(Cl)ccc32)n1 [Compound I-1046] | A (No diseased area) |
| COc1nc(OC)nc(-n2cnc3cc(C(C)C)ccc32)n1 [Compound I-136] | B (Diseased area of less than 25%) |
| COc1cc(OC)nc(-n2c(S(C)(=O)=O)nc3cc(C)ccc32)n1 [Compound I-424] | A (No diseased area) |
| COc1nc(OC)nc(-n2c(SC)nc3cc(Cl)ccc32)n1 [Compound I-394] | A (No diseased area) |
| COc1ccc2c(c1)ncn2-c1nc(OC)nc(OC)n1 [Compound I-141] | A (No diseased area) |
